Assay results published in patent US7807703B2, “Substituted aryl ketones” (Bayer CropScience AG, priority 2002, dated 2010).
Read-outs that look alike come from different tables or passages of the source.

Experiment: log P determination by reversed-phase HPLC (EEC Directive 79/831 Annex V.A8; acidic or neutral mobile phase)
Format: physicochemical
Conditions: for logP (HPLC, mobile phase not marked) / log P (acidic) / chromatographic logP / log P: reversed-phase C 18, 43° C., HPLC; for chromatographic logP: reversed-phase C18 HPLC column
Procedure: The log P values given in the table were determined in accordance with EEC Directive 79/831 Annex V.A8 by HPLC (High Performance Liquid Chromatography) using a reversed-phase column (C 18). Temperature: 43° C.
(a) Mobile phases for the determination in the acidic range: 0.1% aqueous phosphoric acid, acetonitrile; linear gradient from 10% acetonitrile to 90% acetonitrile—the corresponding measurement results are marked a) in Table 1.
(b) Mobile phases for the determination in the neutral range: 0.01 molar aqueous phosphate buffer solution, acetonitrile; linear gradient from 10% acetonitrile to 90% acetonitrile—the corresponding measurement results are marked b) in Table 1.

[1] = HPLC reversed-phase C18, 43° C., acidic range: 0.1% aqueous phosphoric acid, acetonitrile gradient (marked a))
[2] = HPLC, reversed-phase C18, 43° C.; acidic range a): 0.1% aqueous phosphoric acid, acetonitrile, linear gradient 10% to 90% acetonitrile
[3] = acidic range: 0.1% aqueous phosphoric acid, acetonitrile (marked a) or acidic)
[4] = mobile phase range not marked, read-out: log P

SMILES	logP [2]	further results
CON(C)Cc1c(S(C)(=O)=O)ccc(C(=O)C2C(=O)CCCC2=O)c1Cl [Example 303]		logP (HPLC, mobile phase not marked) (mobile phase range not marked): (I-2) 2.49
CC(C)S(=O)(=O)NCCOc1c(Cl)ccc(C(=O)C2C(=O)CCCC2=O)c1Cl [Example 25]		logP [1]: logP = 2.50^a)
CS(=O)(=O)c1ccc(C(=O)C2C(=O)CCCC2=O)c(Cl)c1CNOCc1ccccc1 [Example 348]		logP (HPLC, mobile phase not marked) (mobile phase range not marked): (I-2) 3.04
CCN(Cc1c(S(C)(=O)=O)ccc(C(=O)c2c(C)nn(C)c2O)c1Cl)OC [Example 407]	(I-2) logP = 1.76^a)	
CCN(CC)C(=O)CN(Cc1c(S(C)(=O)=O)ccc(C(=O)OC)c1Cl)OC [VIII-36]		log P (acidic) [3]: logPacidic = 2.28
COC(=O)c1ccc(Cl)c(CN(C)OC)c1OC [VIII-66]		log P (acidic) [3]: logPacidic = 2.76
CCn1ncc(C(=O)c2ccc(S(C)(=O)=O)c(CN(OC(C)C)C(C)C)c2Cl)c1O [Example 421]	logP = 3.25^a)	
CONCc1c(Cl)ccc(C(=O)C2C(=O)CCCC2=O)c1Cl [Example 129]		logP [1]: logP = 2.33^a)
COCCON(C)Cc1c(S(C)(=O)=O)ccc(C(=O)C2C(=O)CCCC2=O)c1Cl [Example 429]	(I-2) logP = 2.43^a)	
CCn1ncc(C(=O)c2ccc(Cl)c(OCCNS(C)(=O)=O)c2Cl)c1O [Example 354]	logP = 1.54^a)	
Cc1c(C(=O)C2C(=O)CCCC2=O)ccc(Br)c1OCCNS(C)(=O)=O [Example 367]	logP = 2.19^a)	
CC(C)ON(Cc1c(S(C)(=O)=O)ccc(C(=O)C2C(=O)CCC(C)(C)C2=O)c1Cl)C(C)C (centres unmarked) [Example 399]	(I-2) logP = 4.80^a)	
Cc1c(C(=O)c2cnn(C)c2O)ccc(Br)c1OCCNS(C)(=O)=O [Example 366]	logP = 1.56^a)	
CN(Cc1c(Cl)ccc(C(=O)C2C(=O)CCCC2=O)c1Cl)S(C)(=O)=O [Example 458]	logP = 2.32^a)	
CCn1ncc(C(=O)c2ccc(Cl)c(CNOC)c2Cl)c1O [Example 130]		logP [1]: logP = 1.68^a)
COc1c(C(=O)C2C(=O)CCCC2=O)ccc(Cl)c1CN(C)S(C)(=O)=O [Example 472]	logP = 2.20^a)	
CON(Cc1c(S(C)(=O)=O)ccc(C(=O)O)c1Cl)C(C)C [II-3, 2-chloro-4-methylsulphonyl-3-(N-methoxy-N-(1-methylethyl)aminomethyl)benzoic acid]		chromatographic logP (acidic range: 0.1% aqueous phosphoric acid, acetonitrile (marked a) or acidic), read-out: log P (acidic)): 2.09
CCOC(=O)c1ccc(Cl)c(OCCNS(C)(=O)=O)c1Cl [VIII-2, ethyl 2,4-dichloro-3-(2-methylsulphonylaminoethoxy)benzoate]		chromatographic logP [4]: 2.35
CON(CC(=O)N(C)C)Cc1c(S(C)(=O)=O)ccc(C(=O)C2C(=O)CCC(C)(C)C2=O)c1Cl (centres unmarked) [Example 419]	(I-2) logP = 2.58^a)	
CCONCc1c(Cl)ccc(C(=O)OC)c1Cl [VIII-7]		log P (mobile phase range not marked): logP = 2.77
CCn1ncc(C(=O)c2ccc(S(C)(=O)=O)c(CN(Cc3ccccc3)OC)c2Cl)c1O [Example 334]		logP (HPLC, mobile phase not marked) (mobile phase range not marked): 2.82
COC(=O)c1ccc(S(C)(=O)=O)c(CNN2CCNC2=O)c1Cl [VIII-5]		log P (mobile phase range not marked): logP = 1.24
COC(=O)c1ccc(S(C)(=O)=O)c(CN(OC(C)C)C(C)C)c1Cl [VIII-47]		log P (acidic) [3]: logPacidic = 3.86
CCOC(=O)c1ccc(Cl)c(OCCNC(=O)OC(C)(C)C)c1Cl [ethyl 2,4-dichloro-3-[2-[(t-butoxycarbonyl)amino]ethoxy]benzoate]		chromatographic logP [4]: 3.79
CON(C)Cc1c(Cl)ccc(C(=O)C2C(=O)CCCC2=O)c1Cl [Example 1, 2-[2,4-dichloro-3-(N-methoxy-N-methylaminomethyl)benzoyl]-1,3-cyclohexanedione]		logP (HPLC reversed-phase C18, 43° C.; no a)/b) mark printed, mobile phase not given): logP = 3.04; chromatographic logP [4]: 3.04
CON(Cc1c(S(C)(=O)=O)ccc(C(=O)c2cnn(C)c2O)c1Cl)C(C)C [Example 371]	logP = 2.16^a)	

SMILES	logP [2]	further results
CCN(Cc1c(Cl)ccc(C(=O)c2cnn(CC)c2O)c1OC)S(C)(=O)=O [Example 462]	logP = 2.12^a)	
CCn1ncc(C(=O)c2ccc(S(C)(=O)=O)c(CN(OC)C3CCOC3)c2Cl)c1O (centres unmarked) [Example 410]	(I-2) logP = 1.70^a)	
CCS(=O)(=O)NCCOc1c(Br)ccc(C(=O)C2C(=O)CCCC2=O)c1Br [Example 20]		logP [1]: logP = 2.45^a)
CCON(Cc1c(S(C)(=O)=O)ccc(C(=O)OC)c1Cl)CC1CCOC1 (centres unmarked) [VIII-55]		log P (acidic) [3]: logPacidic = 2.60
CCONCc1c(Cl)ccc(C(=O)c2cnn(CC)c2O)c1OC [Example 448]	logP = 3.60^a)	
CCN(Cc1c(S(C)(=O)=O)ccc(C(=O)C2C(=O)CCC(C)(C)C2=O)c1Cl)OC(C)C (centres unmarked) [Example 403]	(I-2) logP = 4.36^a)	
CCn1ncc(C(=O)c2ccc(S(C)(=O)=O)c(CN(Cc3ccccc3)OC)c2Cl)c1O [Example 153]		logP [1]: (I-2) logP = 2.82^a)
CCCS(=O)(=O)NCCOc1c(Cl)ccc(C(=O)C2C(=O)CCCC2=O)c1Cl [Example 168]		logP [1]: logP = 2.67^a)
C=CCN(Cc1c(S(C)(=O)=O)ccc(C(=O)C2C(=O)CCCC2=O)c1Cl)OC [Example 158]		logP [1]: (I-2) logP = 3.01^a)
CN(Cc1c(S(C)(=O)=O)ccc(C(=O)C2C(=O)CCCC2=O)c1Cl)OCC1CCOC1 (centres unmarked) [Example 434]	(I-2) logP = 2.67^a)	
CCn1ncc(C(=O)c2ccc(S(C)(=O)=O)c(CN(CC3CCOC3)OC3CCCC3)c2Cl)c1O (centres unmarked) [Example 417]	(I-2) logP = 2.76^a)	
CCN(Cc1c(S(C)(=O)=O)ccc(C(=O)C2C(=O)CCCC2=O)c1Cl)OC [Example 150]		logP [1]: logP = 2.87^a)
CCS(=O)(=O)NCCOc1c(Br)ccc(C(=O)c2cnn(C)c2O)c1C [Example 363]	logP = 1.77^a)	
COCCON(C)Cc1c(S(C)(=O)=O)ccc(C(=O)C2C(=O)CCC(C)(C)C2=O)c1Cl (centres unmarked) [Example 432]	(I-2) logP = 3.22^a)	
CCN(Cc1c(S(C)(=O)=O)ccc(C(=O)c2cnn(C)c2O)c1Cl)S(C)(=O)=O [Example 469]	logP = 1.22^a)	
CCn1ncc(C(=O)c2ccc(S(C)(=O)=O)c(CN(C)OCC3CC3)c2Cl)c1O [Example 443]	(I-2) logP = 2.41^a)	
COCCON(C)Cc1c(S(C)(=O)=O)ccc(C(=O)c2cnn(C)c2O)c1Cl [Example 433]	(I-2) logP = 1.51^a)	
CCN(Cc1c(S(C)(=O)=O)ccc(C(=O)c2cnn(CC)c2O)c1Cl)OC [Example 309]		logP (HPLC, mobile phase not marked) (mobile phase range not marked): 2.16
CCn1ncc(C(=O)c2ccc(S(C)(=O)=O)c(CN(OC)C3CCCC3)c2Cl)c1O [Example 379]	(I-2) logP = 2.99^a)	
CCON(Cc1c(S(C)(=O)=O)ccc(C(=O)C2C(=O)CCCC2=O)c1Cl)C(C)C [Example 418]	logP = 3.66^a)	
CCN(Cc1c(S(C)(=O)=O)ccc(C(=O)OC)c1Cl)OC(C)C [VIII-46]		log P (acidic) [3]: logPacidic = 3.39
CCn1ncc(C(=O)c2ccc(S(C)(=O)=O)c(CN(C)OCC3CC3)c2Cl)c1O [Example 445]	(I-2) logP = 2.05^a)	
COc1c(C(=O)C2C(=O)CC(C)CC2=O)ccc(Cl)c1CN(C)S(C)(=O)=O (centres unmarked) [Example 476]	(I-2) logP = 2.56^a)	
CCN(Cc1c(S(C)(=O)=O)ccc(C(=O)c2c(C)nn(CC)c2O)c1Cl)OC [Example 406]	(I-2) logP = 2.04^a)	
CCn1ncc(C(=O)c2ccc(S(C)(=O)=O)c(CN(C)OCC3CCOC3)c2Cl)c1O (centres unmarked) [Example 435]	(I-2) logP = 2.03^a)	
CCn1ncc(C(=O)c2ccc(Cl)c(OCCNS(=O)(=O)c3cccs3)c2Cl)c1O [Example 34]		logP [1]: (I-2) logP = 2.41^a)
